From article PMC3898838, “Design, Synthesis, and Biological Evaluation of an Allosteric Inhibitor of HSET that Targets Cancer Cells with Supernumerary Centrosomes” (Chemistry & Biology, 2013)

Legend:
[1] = tested on: BT549 cells; assay: IncuCyte live-cell imaging, proliferation; assay type: cell-based, human; details: BT549, 100-350 μM
Excerpt: (§1) In order to ascertain whether CW069 could more broadly reduce proliferation in a range of cancer cells, we carried out IncuCyte live-cell imaging on N1E-115 cells and BT549 (with lower but marked centrosome amplification) and MCF-7 (with normal centrosome numbers) breast cancer cells. Cells were imaged for 21 hr prior to treatment with DMSO control (0.2%) and various concentrations of CW069, and then imaged for a further 36 hr. […] It could also be due to another direct or indirect effect, and the role of HSET in the survival of cancer cells with normal centrosome numbers remains to be fully understood.
(§2) NHDF cells were obtained from PromoCell, and the N1E-115 and HeLa cells were obtained from ATCC/LGC Standards. The BT549, MCF-7 and MDA-MB-231 cells were kind gifts from the Caldas laboratory (CRUK Cambridge Institute) and were originally obtained from ATCC/LGC. All human cells were verified by STR genotyping and all tested negative for mycoplasma. […] Fluorescence was quantified using an Infinite 200 PRO plate-reader (Tecan) at a wavelength of 545 nm. […]
(§3) For live-cell imaging, plated cells were imaged prior to treatment for 24 hr and then after treatment for 72 hr. […] Data were analyzed as the percentage of original cell confluency in order to directly compare each compound treatment with the DMSO control.

[2] = tested on: MCF-7 cells; assay: IncuCyte live-cell imaging, proliferation; assay type: cell-based, human; details: MCF-7, 100-350 μM
Excerpt: as §1, §2, §3

[3] = biological target: T1, full-length, N-terminal, 6His-tagged human HSET (Homo sapiens, UniProt Q9BW19); assay: Differential scanning fluorimetry (DSF); assay type: binding; details: CW069 0.03125-1 mM in 4% DMSO
T1 sequence (Q9BW19 307-663 limits assumed): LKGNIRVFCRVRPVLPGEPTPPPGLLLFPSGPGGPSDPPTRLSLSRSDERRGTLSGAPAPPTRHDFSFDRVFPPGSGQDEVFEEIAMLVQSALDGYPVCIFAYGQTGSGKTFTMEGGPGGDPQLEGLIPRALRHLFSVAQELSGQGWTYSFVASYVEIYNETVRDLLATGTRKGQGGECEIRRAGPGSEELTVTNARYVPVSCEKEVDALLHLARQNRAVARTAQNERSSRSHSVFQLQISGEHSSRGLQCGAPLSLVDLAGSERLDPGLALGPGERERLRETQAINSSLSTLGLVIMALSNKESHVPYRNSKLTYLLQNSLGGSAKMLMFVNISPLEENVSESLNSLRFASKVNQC
Procedure: DSF is an inexpensive and rapid method for identifying ligands of purified proteins, and relies on the difference in protein unfolding temperature in the presence and absence of a small molecule ([Niesen et al., 2007]). The unfolding temperature is measured by the increase in fluorescence of a dye with particular affinity for the hydrophobic regions of proteins, which become exposed upon unfolding ([Niesen et al., 2007]). The difference in the transition midpoint, ΔTm, in the presence of a ligand is related to its binding affinity; however, this is not a direct measure of the binding coefficient and therefore was not used to calculate the affinity of CW069 for HSET ([Holdgate and Ward, 2005]).

O=C(O)c1cc(I)ccc1NC(=O)[C@H](Cc1ccccc1)NCc1ccccc1 [CW069] was tested, and the cell proliferation [1] was “antiproliferative effect”, the cell proliferation [2] was “does reduce their proliferation” and the “maximum HSET ΔTm” value [3] was −8.0 °C.
